Data published in patent US12157746B2, “Tetrahydro-1H-pyrazino[2,1-a]isoindolylquinoline compounds for the treatment of autoimmune disease” (F. HOFFMANN-LA ROCHE AG, priority 2018, dated 2024).

What follows are compounds tested against T1, human TLR7 (Homo sapiens, UniProt Q9NYK1) (assay: HEK293-Blue-hTLR-7 cells assay). Conditions: HEK293-Blue-hTLR7 cells, R848 stimulation, 20 hrs, SEAP reporter; read-out: HEK/hTLR7 IC50.
T1 sequence (Q9NYK1 27-1049): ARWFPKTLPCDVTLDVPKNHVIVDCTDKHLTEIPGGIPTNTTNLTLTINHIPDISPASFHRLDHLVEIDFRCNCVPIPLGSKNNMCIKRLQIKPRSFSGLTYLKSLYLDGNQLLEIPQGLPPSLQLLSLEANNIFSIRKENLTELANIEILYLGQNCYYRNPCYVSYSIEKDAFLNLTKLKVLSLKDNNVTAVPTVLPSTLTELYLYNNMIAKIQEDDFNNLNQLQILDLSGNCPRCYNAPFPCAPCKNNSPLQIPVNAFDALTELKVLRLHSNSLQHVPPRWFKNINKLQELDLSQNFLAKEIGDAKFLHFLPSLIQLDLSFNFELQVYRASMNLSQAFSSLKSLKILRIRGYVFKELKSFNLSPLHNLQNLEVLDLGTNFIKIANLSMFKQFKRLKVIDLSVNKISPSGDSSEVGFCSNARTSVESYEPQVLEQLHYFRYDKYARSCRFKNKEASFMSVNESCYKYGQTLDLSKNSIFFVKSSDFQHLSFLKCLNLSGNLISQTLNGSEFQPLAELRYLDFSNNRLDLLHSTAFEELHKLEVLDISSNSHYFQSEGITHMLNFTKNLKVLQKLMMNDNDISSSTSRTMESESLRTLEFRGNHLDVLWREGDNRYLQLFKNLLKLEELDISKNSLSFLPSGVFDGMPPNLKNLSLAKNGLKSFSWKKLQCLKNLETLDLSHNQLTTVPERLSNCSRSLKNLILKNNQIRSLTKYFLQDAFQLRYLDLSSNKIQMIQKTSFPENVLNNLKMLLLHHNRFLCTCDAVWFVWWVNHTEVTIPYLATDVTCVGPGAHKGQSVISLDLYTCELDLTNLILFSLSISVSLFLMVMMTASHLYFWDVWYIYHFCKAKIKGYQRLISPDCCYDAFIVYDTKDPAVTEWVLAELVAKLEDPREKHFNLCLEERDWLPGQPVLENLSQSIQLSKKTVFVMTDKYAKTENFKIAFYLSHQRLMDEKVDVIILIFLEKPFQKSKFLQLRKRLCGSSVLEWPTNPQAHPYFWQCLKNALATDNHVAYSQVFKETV
Format: cell-based
How it was run: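 HEK293-Blue-hTLR7 cells (NF-κB/AP-1-driven SEAP reporter) incubated with serially diluted compound (1% DMSO final) and R848 agonist for 20 h at 37 °C. Supernatant SEAP measured with QUANTI-Blue (2 h, 37 °C) by absorbance at 620-655 nm; antagonism seen as reduced reporter.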

Q: With C[C@@H]1CN(c2ccc(C#N)c3ncccc23)C[C@@H]2c3ccc(C(=O)N4CCC(C)(N)CC4)cc3CN12 [Example 88, 5-[(4R,10bS)-8-(4-amino-4-methyl-piperidine-1-carbonyl)-4-methyl-3,4,6,10b-tetrahydro-1H-pyrazino[2,1-a]isoindol-2-yl]quinoline-8-carbonitrile] as the compound, how does the IC50 read?
A: 3.7 nM

Q: Which IC50 does the source give for C[C@@H]1CN(c2ccc(C#N)c3ncccc23)C[C@@H]2c3ccc(N[C@@H]4CCCNC4)cc3CN12 [Example 65, 5-[(4R,10bS)-4-methyl-8-[[(3R)-3-piperidyl]amino]-3,4,6,10b-tetrahydro-1H-pyrazino[2,1-a]isoindol-2-yl]quinoline-8-carbonitrile] here?
A: 4.4 nM

Q: With C[C@@H]1CN(c2ccc(C#N)c3ncccc23)C[C@@H]2c3ccc(N4C[C@@H]5CNCCN5C4=O)cc3CN12 [Example 71, 5-[(4R,10bS)-8-[(8aS)-3-oxo-1,5,6,7,8,8a-hexahydroimidazo[1,5-a]pyrazin-2-yl]-4-methyl-3,4,6,10b-tetrahydro-1H-pyrazino[2,1-a]isoindol-2-yl]quinoline-8-carbonitrile] as the compound, how does the IC50 read?
A: < 3.2 nM

Q: Which IC50 does the source give for CO[C@H]1CNC[C@H]1Nc1ccc2c(c1)CN1[C@H](C)CN(c3ccc(C#N)c4ncccc34)C[C@H]21 [Example 61, 5-[(4R,10bS)-8-[[(3R,4S)-4-methoxypyrrolidin-3-yl]amino]-4-methyl-3,4,6,10b-tetrahydro-1H-pyrazino[2,1-a]isoindol-2-yl]quinoline-8-carbonitrile] here?
A: 5.7 nM

Q: With C[C@@H]1CN(c2ccc(C#N)c3ncccc23)C[C@@H]2c3ccc(NCC4(F)CNC4)cc3CN12 [Example 69, 5-[(4R,10bS)-8-[(3-fluoroazetidin-3-yl)methylamino]-4-methyl-3,4,6,10b-tetrahydro-1H-pyrazino[2,1-a]isoindol-2-yl]quinoline-8-carbonitrile] as the compound, how does the IC50 read?
A: 18.2 nM

Q: Which IC50 does the source give for C[C@@H]1CN(c2ccc(C#N)c3ncccc23)C[C@@H]2c3ccc(N4CCNCC4)cc3CN12 [Example 1, 5-[(4R,10bS)-4-methyl-8-piperazin-1-yl-3,4,6,10b-tetrahydro-1H-pyrazino[2,1-a]isoindol-2-yl]quinoline-8-carbonitrile] here?
A: < 3.2 nM

Q: With CO[C@H]1CNC[C@@H]1N(C)c1ccc2c(c1)CN1[C@H](C)CN(c3ccc(C#N)c4ncccc34)C[C@H]21 [Example 64, 5-[(4R,10bS)-8-[[(3S,4S)-4-methoxypyrrolidin-3-yl]-methyl-amino]-4-methyl-3,4,6,10b-tetrahydro-1H-pyrazino[2,1-a]isoindol-2-yl]quinoline-8-carbonitrile] as the compound, how does the IC50 read?
A: < 3.2 nM

Q: Which IC50 does the source give for C[C@@H]1CN(c2ccc(C#N)c3ncccc23)C[C@@H]2c3cc(F)c(N4CC5(CNC5)C4)cc3CN12 [Example 84, 5-[(4R,10bS)-8-(2,6-diazaspiro[3.3]heptan-2-yl)-9-fluoro-4-methyl-3,4,6,10b-tetrahydro-1H-pyrazino[2,1-a]isoindol-2-yl]quinoline-8-carbonitrile] here?
A: 2.6 nM

Q: For Cc1ccc(N2C[C@@H](C)N3Cc4cc(N[C@H]5CNC[C@H]5F)ccc4[C@H]3C2)c2cccnc12 [Example 75, (4R,10bS)—N-[(3S,4R)-4-fluoropyrrolidin-3-yl]-4-methyl-2-(8-methyl-5-quinolyl)-3,4,6,10b-tetrahydro-1H-pyrazino[2,1-a]isoindol-8-amine], which IC50 is on record?
A: 47.8 nM

Q: For CO[C@H]1CNC[C@@H]1Nc1ccc2c(c1)CN1[C@H](C)CN(c3ccc(C#N)c4ncccc34)C[C@H]21 [Example 62, 5-[(4R,10bS)-8-[[(3S,4S)-4-methoxypyrrolidin-3-yl]amino]-4-methyl-3,4,6,10b-tetrahydro-1H-pyrazino[2,1-a]isoindol-2-yl]quinoline-8-carbonitrile], which IC50 is on record?
A: 5.9 nM

Q: For Cc1ccc(N2C[C@@H](C)N3Cc4cc(N[C@H]5CNC[C@H]5F)ccc4[C@H]3C2)c2nccnc12 [Example 76, (4R,10bS)—N-[(3S,4R)-4-fluoropyrrolidin-3-yl]-4-methyl-2-(8-methylquinoxalin-5-yl)-3,4,6,10b-tetrahydro-1H-pyrazino[2,1-a]isoindol-8-amine], which IC50 is on record?
A: 22.8 nM

Q: For C[C@@H]1CN(c2ccc(C#N)c3ncccc23)C[C@@H]2c3ccc(NCCN4CC[C@H](O)C4)cc3CN12 [Example 68, 5-[(4R,10bS)-8-[2-[(3S)-3-hydroxypyrrolidin-1-yl]ethylamino]-4-methyl-3,4,6,10b-tetrahydro-1H-pyrazino[2,1-a]isoindol-2-yl]quinoline-8-carbonitrile], which IC50 is on record?
A: 3.3 nM

Q: With CO[C@@H]1CNC[C@H]1Nc1cc2c(cc1C)[C@H]1CN(c3ccc(C#N)c4ncccc34)C[C@@H](C)N1C2 [Example 63, 5-[(4R,10bS)-8-[[(3R,4R)-4-methoxypyrrolidin-3-yl]amino]-4,9-dimethyl-3,4,6,10b-tetrahydro-1H-pyrazino[2,1-a]isoindol-2-yl]quinoline-8-carbonitrile] as the compound, how does the IC50 read?
A: 7.3 nM

Q: C[C@@H]1CN(c2ccc(C#N)c3ncccc23)C[C@@H]2c3ccc(N[C@@H]4CNCCOC4)cc3CN12 [Example 56A, 5-[(4R,10bS)-4-methyl-8-[[(6R)-1,4-oxazepan-6-yl]amino]-3,4,6,10b-tetrahydro-1H-pyrazino[2,1-a]isoindol-2-yl]quinoline-8-carbonitrile] was tested. Which IC50 did it give?
A: 11.1 nM

Q: For C[C@@H]1CN(c2ccc(C#N)c3ncccc23)C[C@@H]2c3ccc(NCC4COCCN4)cc3CN12 (stereo partly drawn) [Example 57, 5-[(4R,10bS)-4-methyl-8-(morpholin-3-ylmethylamino)-3,4,6,10b-tetrahydro-1H-pyrazino[2,1-a]isoindol-2-yl]quinoline-8-carbonitrile], which IC50 is on record?
A: 11.1 nM

Q: How did the IC50 turn out when C[C@H]1CN(c2ccc(C#N)c3ncccc23)C[C@H]2c3ccc(N4CCNCC4)cc3CN12 [Example 2, 5-[(4S,10bR)-4-methyl-8-piperazin-1-yl-3,4,6,10b-tetrahydro-1H-pyrazino[2,1-a]isoindol-2-yl]quinoline-8-carbonitrile] was run?
A: 71.5 nM

Q: C[C@@H]1CN(c2ccc(C#N)c3ncccc23)C[C@@H]2c3cc(F)c(N4C[C@H](N)[C@@](C)(O)C4)cc3CN12 [Example 83, 5-[(4R,10bS)-8-[(3S,4S)-4-amino-3-hydroxy-3-methyl-pyrrolidin-1-yl]-9-fluoro-4-methyl-3,4,6,10b-tetrahydro-1H-pyrazino[2,1-a]isoindol-2-yl]quinoline-8-carbonitrile] was tested. Which IC50 did it give?
A: 2.7 nM

Q: How did the IC50 turn out when C[C@@H]1CN(c2ccc(C#N)c3ncccc23)C[C@@H]2c3cccc(NCCN4CC[C@H](O)C4)c3CN12 [Example 80, 5-[(4R,10bS)-7-[2-[(3S)-3-hydroxypyrrolidin-1-yl]ethylamino]-4-methyl-3,4,6,10b-tetrahydro-1H-pyrazino[2,1-a]isoindol-2-yl]quinoline-8-carbonitrile] was run?
A: 17.9 nM

Q: With N#Cc1ccc(N2CCN3Cc4cc(N5CCNCC5)ccc4C3C2)c2cccnc12 (centres unmarked) [Example 3, 5-(8-piperazin-1-yl-3,4,6,10b-tetrahydro-1H-pyrazino[2,1-a]isoindol-2-yl)quinoline-8-carbonitrile] as the compound, how does the IC50 read?
A: 42.6 nM

Q: Which IC50 does the source give for C[C@@H]1CN(c2ccc(C#N)c3ncccc23)C[C@@H]2c3ccc(N4C[C@H]5CNCCN5C4=O)cc3CN12 [Example 72, 5-[(4R,10bS)-8-[(8aR)-3-oxo-1,5,6,7,8,8a-hexahydroimidazo[1,5-a]pyrazin-2-yl]-4-methyl-3,4,6,10b-tetrahydro-1H-pyrazino[2,1-a]isoindol-2-yl]quinoline-8-carbonitrile] here?
A: < 3.2 nM

Q: How did the IC50 turn out when C[C@@H]1CN(c2ccc(C#N)c3ncccc23)C[C@@H]2c3ccc(OC[C@@H]4C[C@H](F)CN4)cc3CN12 [Example 74, 5-[(4R,10bS)-8-[[(2S,4S)-4-fluoropyrrolidin-2-yl]methoxy]-4-methyl-3,4,6,10b-tetrahydro-1H-pyrazino[2,1-a]isoindol-2-yl]quinoline-8-carbonitrile] was run?
A: 3.9 nM

Q: How did the IC50 turn out when C[C@@H]1CN(c2ccc(C#N)c3ncccc23)C[C@@H]2c3cccc(N[C@H]4CNC[C@H]4F)c3CN12 [Example 81, 5-[(4R,10bS)-7-[[(3S,4R)-4-fluoropyrrolidin-3-yl]amino]-4-methyl-3,4,6,10b-tetrahydro-1H-pyrazino[2,1-a]isoindol-2-yl]quinoline-8-carbonitrile] was run?
A: 7.4 nM

Q: C[C@@H]1CN(c2ccc(C#N)c3ncccc23)C[C@@H]2c3ccc(NC[C@@H]4C[C@H](F)CN4)cc3CN12 [Example 70, 5-[(4R,10bS)-8-[[(2S,4S)-4-fluoropyrrolidin-2-yl]methylamino]-4-methyl-3,4,6,10b-tetrahydro-1H-pyrazino[2,1-a]isoindol-2-yl]quinoline-8-carbonitrile] was tested. Which IC50 did it give?
A: 9 nM
